Measured values from PubChem BioAssay AID1259371 (The Scripps Research Institute Molecular Screening Center, 2018).
Activity calls are given as the source filed them. The rule behind the calls is not given here.

What follows are molecules tested against Microphthalmia-associated transcription factor (Homo sapiens) (UniProt O75030) (assay: compounds blocking human MITF signal – biochemical, AlphaScreen, dose response (AID 1259371)). Conditions: AlphaScreen biochemical MITF assay, signal inhibition.
Chain of Microphthalmia-associated transcription factor (Homo sapiens) (O75030 whole entry, looked up): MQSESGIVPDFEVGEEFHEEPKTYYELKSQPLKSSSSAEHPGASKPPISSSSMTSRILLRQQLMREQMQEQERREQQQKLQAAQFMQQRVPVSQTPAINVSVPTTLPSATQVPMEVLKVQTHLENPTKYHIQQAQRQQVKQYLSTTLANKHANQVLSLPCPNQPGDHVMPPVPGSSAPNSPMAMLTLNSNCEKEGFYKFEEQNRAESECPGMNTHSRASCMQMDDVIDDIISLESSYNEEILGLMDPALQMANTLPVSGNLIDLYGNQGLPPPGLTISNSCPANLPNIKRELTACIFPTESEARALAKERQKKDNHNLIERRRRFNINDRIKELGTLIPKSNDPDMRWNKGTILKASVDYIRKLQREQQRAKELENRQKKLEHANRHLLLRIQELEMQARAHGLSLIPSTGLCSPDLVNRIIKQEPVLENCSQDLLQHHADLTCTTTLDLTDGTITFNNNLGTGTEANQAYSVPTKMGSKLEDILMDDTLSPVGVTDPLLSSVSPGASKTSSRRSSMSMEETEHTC

| SMILES | IC50 |
| --- | --- |
| O=C(O)c1cc(N/N=C/c2ccc(N3CCOCC3)s2)ccc1Cl | 116 nM |
| O=[N+]([O-])c1ccc(Br)c2c1no[n+]2[O-] | inactive |
| O=C(/C=C/c1ccc(-c2cccc(C(F)(F)F)c2)o1)c1ccco1 | 160 nM |
| CCN1CCc2c(sc(NC(=S)NC(=O)/C=C/c3ccco3)c2C(N)=O)C1 | 726 nM |
| CCOC(=O)C1C2NC(=S)N(CC)C1(C)Oc1ccc(Cl)cc12 (configuration not stated) | inactive |
| NS(=O)(=O)c1ccc(N=Cc2cc3c(cc2[N+](=O)[O-])OCO3)cc1 | inactive |
| O=C(NNC(=S)Nc1ccccc1)C(=O)NNC(=S)Nc1ccccc1 | inactive |
| O=C1N[C@H](Cc2ccc(O)cc2)C(=O)N2CCN(C(=O)NC3CCCCC3)C[C@H]12 | > 2160 nM (inactive) |
| CCOc1cccc(OCC)c2c(C)[n+](C)c(C)c1-2 | 58.2 nM |
| O=P(O)(O)C(Sc1ccc(Cl)cc1)P(=O)(O)O | 62.6 nM |
| CC(=O)NS(=O)(=O)c1ccc(NC(=O)c2ccc([N+](=O)[O-])o2)cc1 | inactive |
| Cn1cc(-c2nc(Nc3ccc(-n4cnc(N5CCOCC5)n4)cc3)ncc2Br)cn1 | inactive |
| O=C1c2ccc([N+](=O)[O-])cc2C(=O)N1c1cc(Br)c(O)c(Br)c1 | 162 nM |
| N#CC1=C(N)n2c(s/c(=C\c3ccco3)c2=O)=C(C#N)C1c1ccco1 (configuration not stated) | 3.85 nM |
| S=c1[nH]nc(-c2ccco2)n1/N=C/C=C/c1ccco1 | 5.3 nM |
| NC(=O)COC(=O)/C=C/c1ccc(I)o1 | inactive |

Second part, the molecule after the results:

| IC50 | SMILES |
| --- | --- |
| inactive | CN(C)CCOCCOc1ccccc1-c1ccccc1 |
| inactive | CCCOc1ccc(N)cc1N |
| 85.5 nM | O=C(Cc1cccs1)N/N=C\C=C\c1ccco1 |
| inactive | CC(=O)NCC(c1cccs1)S(=O)(=O)c1ccc(C)cc1 (configuration not stated) |
| 460 nM | O=C(O)c1ccccc1-c1ccc(/C=C/[N+](=O)[O-])o1 |
| > 5760 nM (inactive) | COc1cc(OC)c(OC)cc1CN1CCN(Cc2ccc(C)cc2)CC1 |
| > 6480 nM (inactive) | CCC(C)c1ccccc1OCCNCCN(C)C (configuration not stated) |
| inactive | O=C(NCc1cccnc1)c1ccnc(-c2cccs2)c1 |
| 268 nM | O=C(O)c1cc(-n2cccc2)ccc1Cl |
| 573 nM | C=C1C(C(=O)NCc2ccco2)C1C(=O)NCc1ccco1 (configuration not stated) |
| 396 nM | O=C(NCCO)c1ccc2nc(-c3ccco3)c(-c3ccco3)nc2c1 |
| 804 nM | CCS(=O)(=O)NCC(c1cccs1)S(=O)(=O)c1ccc(C)cc1 (configuration not stated) |
| inactive | O=C1N[C@@H](Cc2c[nH]c3ccccc23)C(=O)N2CCN(C(=O)NC3CCCCC3)C[C@H]12 |
| > 2160 nM (inactive) | O=C1N[C@@H](Cc2ccc(O)cc2)C(=O)N2CCN(C(=O)NCc3ccccc3)C[C@H]12 |
| inactive | CCCCOc1ccc(C(=O)N/C(=C/c2ccco2)C(=O)O)cc1 |
| > 6480 nM (inactive) | Cc1ccc(O)c(NC(=S)NC(=O)/C=C/c2ccco2)c1 |
